EC50 and inhibition data for 56 molecules are collected here from patent US6573262B2, “Composition and antiviral activity of substituted indoleoxoacetic piperazine derivatives” (priority 2000, dated 2003).

This assay deals with HIV-1 single-round infectious reporter virus. In words: microbe, parasite or virus in culture. The settings on record: for EC50: Human immunodeficiency virus 1, HeLa-CD4/CCR5, 72 h, read-out: EC50 Group from Table 1; for inhibition at 10 µM: Human immunodeficiency virus 1, HeLa-CD4/CCR5, read-out: % Inhibition @ 10 uM. The format is cell-based.

Broadly, the EC50 is the concentration that produces a half-maximal response. Regarding `O=C(C(=O)N1CCN(C(=O)c2ccccc2)CC1)c1c[nH]c2c(-n3cccn3)ccc(F)c12` [Example 116], the EC50 was less than 1 µM.
For orientation: inhibition means the change of the read-out against control, counted positive when it falls. On to `O=C(C(=O)N1CCN(C(=O)c2ccccc2)CC1)c1c[nH]c2c(-c3cnco3)ccc(F)c12` [Example 17], for which the EC50 is less than 1 µM and the inhibition at 10 µM is greater than 98%.
In the same order, the values of `COc1ccc(-c2cccnc2)c2[nH]cc(C(=O)C(=O)N3CCN(C(=O)c4ccccc4)CC3)c12` [Example 8] are less than 1 µM and greater than 98%.
On to `O=C(NCCN1CCOCC1)c1ccc(F)c2c(C(=O)C(=O)N3CCN(C(=O)c4ccccc4)CC3)c[nH]c12` [Example 52], for which the EC50 is less than 1 µM and the inhibition at 10 µM was greater than 98%.
As to `CC(C)(C)OC(=O)N1CCN(C(=O)C(=O)c2c[nH]c3c(/C(N)=N/O)ccc(F)c23)CC1` [Example 121], the EC50 is less than 1 µM.
Still for that read-out and setting: the figure for `COC(=O)/C=C/c1ccc(F)c2c(C(=O)C(=O)N3CCN(C(=O)c4ccccc4)CC3)c[nH]c12` [Example 217] is less than 1 µM.
Consider `Cn1nnc(-c2ccc(F)c3c(C(=O)C(=O)N4CCN(C(=O)c5ccccc5)CC4)c[nH]c23)n1` [Example 21], for which the EC50 was less than 1 µM and the inhibition at 10 µM is greater than 98%.
Regarding `O=C(C(=O)N1CCN(C(=O)c2ccccn2)CC1)c1c[nH]c2c(-c3nnn(C(F)F)n3)ccc(F)c12` [Example 149], the EC50 was less than 1 µM.
Consider `C[C@@H]1CN(C(=O)c2ccccn2)CCN1C(=O)C(=O)c1c[nH]c2c(-c3nn[nH]n3)ccc(F)c12` [Example 34], for which the concentration for a half-maximal effect (EC50) was less than 1 µM and the inhibition at 10 µM was greater than 98%.
In the same order, the values of `O=C(Nc1ccncc1)c1ccc(F)c2c(C(=O)C(=O)N3CCN(C(=O)c4ccccc4)CC3)c[nH]c12` [Example 39] are less than 1 µM and greater than 98%.
Take `CCCNC(=O)NNC(=O)c1ccc(F)c2c(C(=O)C(=O)N3CCN(C(=O)c4ccccc4)CC3)c[nH]c12` [Example 135]: the EC50 was less than 1 µM.
With `O=C(C(=O)N1CCN(C(=O)c2ccccc2)CC1)c1c[nH]c2c(-c3ccc(Cl)s3)ccc(F)c12` [Example 16], the EC50 was less than 1 µM and the inhibition at 10 µM was greater than 98%.
Regarding `O=C(C(=O)N1CCN(C(=O)c2ccccc2F)CC1)c1c[nH]c2c(-c3ncon3)ccc(F)c12` [Example 150C], the EC50 is less than 1 µM.
For `COC(=O)Cn1nnc(-c2ccc(F)c3c(C(=O)C(=O)N4CCN(C(=O)c5ccccc5)CC4)c[nH]c23)n1` [Example 22], the EC50 is less than 1 µM and the inhibition at 10 µM is greater than 98%.
Turning to `NC(=O)Cn1nnc(-c2ccc(F)c3c(C(=O)C(=O)N4CCN(C(=O)c5ccccc5)CC4)c[nH]c23)n1` [Example 104], the EC50 was less than 1 µM.
With `O=C(C(=O)N1CCN(C(=O)c2ccccc2)CC1)c1c[nH]c2c(-c3cncnc3)ccc(F)c12` [Example 9], the EC50 is less than 1 µM and the inhibition at 10 µM is greater than 98%.
Consider `CCC(C)Nc1nc(-c2ccc(F)c3c(C(=O)C(=O)N4CCN(C(=O)c5ccccc5)C[C@H]4C)c[nH]c23)no1` (stereo partly shown) [Example 160], for which the EC50 was less than 1 µM.
On the same count and under the same terms, the figure for `CC(=O)Nc1nc(-c2ccc(F)c3c(C(=O)C(=O)N4CCN(C(=O)c5ccccc5)CC4)c[nH]c23)no1` [Example 96] is less than 1 µM; for `COc1ccc(C(C)=O)c2[nH]cc(C(=O)C(=O)N3CCN(C(=O)c4ccccc4)CC3)c12` [Example 119] it is less than 1 µM; for `CC(C)NC(=O)NNC(=O)c1ccc(F)c2c(C(=O)C(=O)N3CCN(C(=O)c4ccccc4)CC3)c[nH]c12` [Example 134] it is less than 1 µM.
On the same count and under the same terms, the result for `CC(C)(C)NC(=O)NNC(=O)c1ccc(F)c2c(C(=O)C(=O)N3CCN(C(=O)c4ccccc4)CC3)c[nH]c12` [Example 133] reads less than 1 µM; that for `CNC(=O)c1nc(-c2ccc(F)c3c(C(=O)C(=O)N4CCN(C(=O)c5ccccc5)CC4)c[nH]c23)no1` [Example 102], less than 1 µM.
Regarding `C[C@@H]1CN(C(=O)c2ccccc2)CCN1C(=O)C(=O)c1c[nH]c2c(-c3noc(NC4CCCC4)n3)ccc(F)c12` [Example 162], the EC50 was less than 1 µM.
On the same count and under the same terms, the result for `O=C(O)c1cc(-c2ccc(F)c3c(C(=O)C(=O)N4CCN(C(=O)c5ccccc5)CC4)c[nH]c23)on1` [Example 90] reads less than 1 µM; that for `O=C(C(=O)N1CCN(C(=O)c2ccccc2)CC1)c1c[nH]c2c(-c3n[nH]c(CCl)n3)ccc(F)c12` [Example 194], less than 1 µM.
For `CCNC(=O)c1cccc2c(C(=O)C(=O)N3CCN(C(=O)c4ccccc4)C[C@H]3C)c[nH]c12` [Example 67], the EC50 is less than 1 µM and the inhibition at 10 µM is greater than 98%.
With `CC(C)(C)OC(=O)N1CCN(C(=O)C(=O)c2c[nH]c3c(-c4ncon4)ccc(F)c23)CC1` [Example 122], the concentration giving a half-maximal response (EC50) is less than 1 µM.
Still for that read-out and setting: the result for `CCOC(=O)c1cc(-c2ccc(F)c3c(C(=O)C(=O)N4CCN(C(=O)c5ccccc5)CC4)c[nH]c23)on1` [Example 87] reads less than 1 µM.
In the case of `C[C@@H]1CN(C(=O)c2ccccn2)CCN1C(=O)C(=O)c1c[nH]c2c(-c3ncon3)ccc(F)c12` [Example 192], the EC50 is less than 1 µM.
Same read-out and setting: the figure for `O=C(C(=O)N1CCN(C(=O)c2ccccc2)CC1)c1c[nH]c2c(-c3cnc[nH]3)ccc(F)c12` [Example 85] is less than 1 µM.
Same read-out and setting: the figure for `O=C(NCc1nc2ccccc2[nH]1)c1ccc(F)c2c(C(=O)C(=O)N3CCN(C(=O)c4ccccc4)CC3)c[nH]c12` [Example 53] is less than 1 µM.
For the molecule `C[C@@H]1CN(C(=O)c2ccccc2)CCN1C(=O)C(=O)c1c[nH]c2c(-c3noc(NCCN4CCOCC4)n3)ccc(F)c12` [Example 159], the EC50 is less than 1 µM.
Same read-out and setting: the result for `C[C@@H]1CN(C(=O)c2ccccc2)CCN1C(=O)C(=O)c1c[nH]c2c(-c3noc(C4CC4)n3)ccc(F)c12` [Example 179] reads less than 1 µM.
Turning to `O=C(C(=O)N1CCN(C(=O)c2ccccc2)CC1)c1c[nH]c2c(-c3nn[nH]n3)ccc(F)c12` [Example 20], the EC50 was less than 1 µM and the inhibition at 10 µM was greater than 98%.
In the case of `C[C@@H]1CN(C(=O)c2ccccc2)CCN1C(=O)C(=O)c1c[nH]c2c(-c3ncon3)ccc(F)c12` [Example 181], the EC50 was less than 1 µM.
As for `Nc1nc(-c2ccc(F)c3c(C(=O)C(=O)N4CCN(C(=O)c5ccccc5)CC4)c[nH]c23)no1` [Example 83], the EC50 is less than 1 µM and the inhibition at 10 µM was greater than 98%.
The like results for `O=C(C(=O)N1CCN(C(=O)c2ccccc2)CC1)c1c[nH]c2c(/C=N/O)ccc(F)c12` [Example 30] were, in that order, less than 1 µM and greater than 98%.
The like results for `CNC(=O)Cn1nnc(-c2ccc(F)c3c(C(=O)C(=O)N4CCN(C(=O)c5ccccc5)CC4)c[nH]c23)n1` [Example 71] were, in that order, less than 1 µM and greater than 98%.
As for `O=C(C(=O)N1CCN(C(=O)c2ccccc2)CC1)c1c[nH]c2c(-c3cncn3Cc3ccccc3)ccc(F)c12` [Example 84], the EC50 is less than 1 µM.
For the molecule `COCCNC(=O)c1ccc(F)c2c(C(=O)C(=O)N3CCN(C(=O)c4ccccc4)CC3)c[nH]c12` [Example 152], the EC50 is less than 1 µM.
As for `COc1ccc(-c2ncon2)c2[nH]cc(C(=O)C(=O)N3CCN(C(=O)c4ccccc4)CC3)c12` [Example 126], the EC50 is less than 1 µM.
With `O=C(C(=O)N1CCN(C(=O)c2ccccc2)CC1)c1c[nH]c2c(C(=O)Nc3nnn[nH]3)cccc12` [Example 63], the EC50 is less than 1 µM and the inhibition at 10 µM worked out at 96%.
The like results for `O=C(Nc1nc2ccccc2[nH]1)c1ccc(F)c2c(C(=O)C(=O)N3CCN(C(=O)c4ccccc4)CC3)c[nH]c12` [Example 41] were, in that order, less than 1 µM and greater than 98%.
In the same order, the values of `O=C(C(=O)N1CCN(C(=O)c2ccccc2)CC1)c1c[nH]c2c(-c3nnn(Cc4ccccc4)n3)ccc(F)c12` [Example 25] are less than 1 µM and greater than 98%.
On to `CC(C)(C)OC(=O)NCCNC(=O)c1ccc(F)c2c(C(=O)C(=O)N3CCN(C(=O)c4ccccc4)CC3)c[nH]c12` [Example 153], for which the EC50 is less than 1 µM.
Same read-out and setting: the result for `Nc1cccc(C(=O)N2CCN(C(=O)C(=O)c3c[nH]c4c(-c5ncon5)ccc(F)c34)CC2)c1` [Example 151] reads less than 1 µM.
On to `N/C(=N\O)c1ccc(F)c2c(C(=O)C(=O)N3CCN(C(=O)c4ccccc4)CC3)c[nH]c12` [Example 27], for which the 50% effective concentration (EC50) is less than 1 µM and the inhibition at 10 µM was greater than 98%.
The like results for `O=C(Nc1cccnc1)c1ccc(F)c2c(C(=O)C(=O)N3CCN(C(=O)c4ccccc4)CC3)c[nH]c12` [Example 35] were, in that order, less than 1 µM and greater than 98%.
For `C[C@@H]1CN(C(=O)c2ccccc2)CCN1C(=O)C(=O)c1c[nH]c2c(C(=O)NCCN3CCOCC3)ccc(F)c12` [Example 177], the EC50 is less than 1 µM.
As for `O=C(C(=O)N1CCN(C(=O)c2ccccc2)CC1)c1c[nH]c2c(-c3nc4ccccc4o3)ccc(F)c12` [Example 18], the concentration for a half-maximal effect (EC50) was less than 1 µM and the inhibition at 10 µM was greater than 98%.
On to `C[C@@H]1CN(C(=O)c2ccccn2)CCN1C(=O)C(=O)c1c[nH]c2c(-c3noc(C(Cl)(Cl)Cl)n3)ccc(F)c12` [Example 187], for which the EC50 was less than 1 µM.
On to `O=C(NCc1ccccc1)c1ccc(F)c2c(C(=O)C(=O)N3CCN(C(=O)c4ccccc4)CC3)c[nH]c12` [Example 45], for which the EC50 was less than 1 µM and the inhibition at 10 µM was greater than 98%.
As for `CS(=O)(=O)NC(=O)c1ccc(F)c2c(C(=O)C(=O)N3CCN(C(=O)c4ccccc4)CC3)c[nH]c12` [Example 60], the EC50 was less than 1 µM and the inhibition at 10 µM is greater than 98%.
As for `O=C(C(=O)N1CCN(C(=O)c2ccccc2)CC1)c1c[nH]c2c(-c3nnco3)ccc(F)c12` [Example 93], the EC50 was less than 1 µM.
Take `COc1ccc(-c2ccc(F)c3c(C(=O)C(=O)N4CCN(C(=O)c5ccccc5)CC4)c[nH]c23)cc1` [Example 4]: the concentration giving a half-maximal response (EC50) is less than 1 µM and the inhibition at 10 µM is greater than 98%.
Regarding `N=C(NN)c1ccc(F)c2c(C(=O)C(=O)N3CCN(C(=O)c4ccccc4)CC3)c[nH]c12` [Example 77], the inhibition at 10 µM is greater than 98%.
